Experimental data as given in US20110263539A1, “SHIP 1 MODULATOR COMPOUNDS” (THE UNIVERSITY OF BRITISH COLUMBIA, priority 2006, published 2011).

Key:
ΔC2 SHIP = test: SHIP enzyme assay with C2 domain deleted SHIP; assay type: biochemical; settings: PI-3,4-P2 20 μM or Compound 100 3 μM, 30 μM IP4
From the text: A His6 tagged SHIP ΔC2 domain deletion mutant (deleting residues 725 to 863) in the mammalian expression vector pME18S was generated by a standard PCR-based methodology. An N-terminal His6 C2 domain construct was also generated by PCR inserted into the pET28C bacterial expression vector using EcoRI and NdeI restriction sites.
The allosteric regulation of enzymes has remained under-appreciated primarily because allosteric effectors are not easy to find. The molecular mechanism by which Compound 100 activated SHIP was investigated, first by performing classical enzyme kinetic analysis of its phosphatase activity. Activity measurements were performed with substrate concentrations from 10-100 μM.
The SHIP protein contains a C2 domain located at the carboxyterminal end of its phosphatase domain. […] SHIP lacking its the C2 domain (ΔC2 SHIP) was prepared.

[1] = system: 100 protein kinase and phosphatase targets; test: Profiling on 100 protein kinase and phosphatase targets; assay type: biochemical; settings: 2 μM final concentration
Protocol: Compound profiling activity was undertaken using 100 protein kinase and phosphatase targets by SignalChem (Richmond, BC, Canada. www.signalchem.com) against compound Compound 100 (2 μM final concentration). Protein kinase assays were performed in the presence of 50 μM ATP at 30° C. for 15 min. Protein phosphatase activities were determined using pNPP as substrate and were also performed at 37° C. for 15 min. The activity of the enzymes in the presence of Compound 100 was compared to that in the vehicle control and expressed as a % change in activity relative to that observed in the vehicle control. Changes in activity of <25% were not considered significant. Enzymes affected by Compound 100 are plotted in an expanded graph in FIG. 12B.

SHIP C2 domain = test: Scintillation proximity assay, C2 domain; assay type: binding; settings: [3H]-Compound 100, SPA beads
Protocol: Compound 100 was radiolabelled with tritium by GE Healthcare (Piscataway, N.J.) to a specific activity of 42 Ci/mmole. Copper chelate (His-Tag) YSi SPA Scintillation Beads (GE Healthcare, Piscataway, N.J.) were diluted in 0.25% BSA/TBS to 1.5 mg/mL and recombinant, His6-tagged protein added at the indicated concentrations: wild-type (1 μM), ΔC2 SHIP enzyme (1 pM) or C2 domain (10 nM). Protein was allowed to bind 1 h at 23° C., and 250 μg of beads were aliquoted per well of a 96-well plate. 5 μCi of [^3H]-Compound 100 was added per well, the plate gently agitated for 30 min and the amount of bead associated radioactivity quantified by counting in a Wallac BetaPlate plate scintillation counter.
Isolated recombinant, His6-tagged C2 domain was expressed and its PI-3,4-P2 binding ability was determined using protein lipid overlay assays. Purified C2 domain was incubated with membrane strips spotted with PI-3,4-P2 and bound protein detected using an anti-His6 antibody. As shown in FIG. 11C the C2 domain bound PI-3,4-P2 and this binding was inhibited by Compound 100, consistent with both Compound 100 and PI-3,4-P2 interacting with the C2 domain at a common binding site.

[2] = system: SHIP+/+ bone marrow derived macrophages; test: LPS stimulation of SHIP+/+ bone marrow derived macrophages; assay type: cell-based, mice
Protocol: Bone marrow cells were aspirated from 4 to 8 week old C57B16×129Sv mixed background mice and SHIP and SHIP cells prepared as described previously. Bone marrow derived macrophages from SHIP^+/+ and SHIP^−/− mice were obtained and maintained in IMDM supplemented with 10% FCS, 150 μM MTG, 2% C127 cell conditioned medium as a source of macrophage colony stimulating factor (M-CSF) (macrophage medium)
LPS stimulation of macrophages. For the analysis of LPS-stimulated TNFα production, 2×10^5 cells were plated the night before in 24 well plates in macrophage medium. The next day, the medium was changed and AQX-016A or carrier was added to cells at the indicated concentrations for 30 min prior to the addition of 10 ng/mL LPS. Supernatants were collected for TNFα determination by ELISA (BD Biosciences, Mississauga, ON, Canada). For analysis of intracellular signaling, 2×10^6 cells were plated the night before in 6 cm tissue culture plates. The next day, the cells were cultured in macrophage medium without M-CSF for 1 hr at 37° C. and then pretreated with AQX-016A or carrier for 30 min prior to the addition of 10 ng/mL LPS for 15 min. Cells were washed with 4° C. PBS and resuspended in lysis buffer (50 mM Hepes, 2 mM EDTA, 1 mM NaVO4, 100 mM NaF, 50 mM NaPPi and 1% NP40) supplemented with Complete Protease Inhibitor Cocktail (Roche, Montreal, Canada). Lysates were rocked at 4° C. for 30 min and clarified by centrifuging 20 min at 12000×g. Lysates were then made 1× in Laemmli's buffer, boiled 2 min and loaded onto 7.5% SDS polyacrylamide […]. Immunoblot analysis for phospho PKB (Cell Signalling, Mississauga, Ont), SHIP and actin (Santa Cruz, Santa Cruz, Calif.) were carried out as described previously.
The target specificity and biological efficacy of AQX-016A were assessed by comparing AQX-016A's effects on PI3K-regulated processes in primary SHIP^+/+ vs SHIP^−/− macrophages and mast cells. […] LPS stimulation of macrophages is associated with a PIP3-dependent release of pro-inflammatory mediators such as TNFα. […]

In the case of `Cc1cc(O)cc2c1[C@]1(C)CCC3C(C)(C)CCC[C@]3(C)[C@H]1C2` (some centres unmarked) [Compound 100], the “ΔC2 SHIP enzyme activity” value (ΔC2 SHIP) is reported as “could not be enhanced”, the off-target effects [1] is reported as “minimal off-target effects” and the “binding to C2 domain” value (SHIP C2 domain) is reported as “directly bind the C2 domain”. The “inhibition of TNFα production, SHIP+/+ vs SHIP−/− macrophages” value ([2]; LPS stimulated) was “selectively inhibited” and the “EC50 for inhibition of TNFα production” value ([2]; LPS stimulated SHIP+/+ macrophages) was “submicromolar”.
